Measured values reported in US5462927A, “Peptides aiding nerve regeneration” (The Administrators of the Tulane Educational Fund, priority 1992, dated 1995).
Square brackets hold non-standard residues; d marks the D form. Peptide text beside a SMILES is read from it.

Experiments:
[1] = test system: sectioned sciatic nerve; common extensor muscle of the finger; experiment: Muscle weight after sciatic nerve section; type: in vivo, rat; details: for Muscle weight Normalized to Mean Animal Weight: 35d. p.o.
[2] = test system: sectioned sciatic nerve; common extensor muscle of the finger; experiment: Characteristics of a single pulse of the common extensor muscle after sciatic nerve section; type: in vivo, rat; details: for Single Pulse: Contraction Time / Single Pulse: Half-Relaxation Time / Single Pulse: Latence / Single Pulse: Muscle Strength Normalized to Muscle Weight / Single Pulse: Speed of Contraction / Single Pulse: Speed of Relaxation / Single Pulse: Strength: 35d. p.o.p.
[3] = test system: sciatic nerve after transection and end-to-end suture; experiment: Morphometry after section and suture of sciatic nerve; type: in vivo, rabbit
[4] = test system: crushed sciatic nerve; experiment: Sensorimotor function test (sciatic nerve regeneration assay, foot-flick response to thermal pain); type: in vivo, rat; details: s.c. every 24 hr for approximately 20-25 days; head prints only 'μG/24 HRS'; vs 0.9% NaCl control
Experimental: Female, Sprague-Dawley rats (Charles River Breeding Labs) were used at an age of 7-8 weeks (120-140 g). Under ether anesthesia, the right sciatic nerve was carefully exposed and crushed with constant pressure, hemostatic forceps for 30 sec prior to closure and suturing of the incision. After surgery, the animals were randomly assigned to treatment groups of 10. The test peptides were administered s.c. in 0.9% NaCl in a vol of 0.1 ml. NaCl (0.9%) served as the control. Injections were started immediately after surgery and given every 24 hr thereafter for approximately 20-25 days. The criterion of sciatic nerve regeneration was based on the recovery of the foot-flick response to thermal pain. Beginning 48 hr after surgery, the rats were tested five days a week for the ability to withdraw, from a heat source, the paw innervated by the crushed nerve. All sensorimotor testing was performed between 1:00 and 3:00 p.m. Specifically, the rat was immobilized by wrapping in a towel, and the sole of the lesioned limb was placed over the aperture of a modified d'Amour apparatus. The time required to withdraw the foot was recorded to the nearest 0.1 of sec using a digital stopwatch. If no response occurred by 5 sec, the test was terminated to avoid tissue damage. The observe measuring the foot-flick response was blind to the treatment group being tested. All animals were acclimatized to the testing procedure prior to surgery. Baseline values were obtained by determining the response time for the unlesioned limb.

[5] = Group 2: Tissue col 10.0 μg/0.5 ml (topical)
[6] = Group 3: Tissue col 1.1 μg/10.5 ml (topical)
[7] = Group 4: s.c. 5 μg 1 kg/day (18 days)
[8] = Group 3 (topical in tissucol, lower dose)
[9] = Group 4 (s.c. 5ug.kg.day for 18 days)
[10] = 1 cm distal to the transection, 32 days p.op., 1 μg/kg per day s.c.
[11] = Region of the Transection, 32 days p.op., 1 μg/kg per day s.c.
[12] = Region of the Transection, 96 days p.op., 1 μg/kg per day s.c.

C[C@@H](N)C(=O)N[C@@H](CCC(N)=O)C(=O)N[C@@H](Cc1ccc(O)cc1)C(=O)N[C@@H](Cc1ccccc1)C(=O)N[C@@H](CCCNC(=N)N)C(=O)N[C@@H](Cc1c[nH]c2ccccc12)C(=O)NCC(N)=O [BIM-22015, D--Ala--Gln--Tyr--Phe--Arg--Trp--Gly--NH2] (H-[dA]QYFRWG-NH2)
Muscle Weight 35d. p.o. [1, 5]: 67.9 µg | Muscle weight Normalized to Mean Animal Weight [1, 5]: 0.211 | Muscle Weight 35d. p.o. [1, 6]: 59.7 µg | Muscle weight Normalized to Mean Animal Weight [1, 6]: 0.212 | Muscle Weight 35d. p.o. [1, 7]: 73.1 µg | Muscle weight Normalized to Mean Animal Weight [1, 7]: 0.226 | improvement of muscle weight normalized to mean animal weight over the control group 1 ([1]; group 4 (s.c. administration), not statistically significant): 15% | improvement of muscle weight normalized to mean animal weight over the control group 1 ([1]; groups 2 and 3 (topical in tissucol)): little improvement | effect on muscle measurements by route of administration ([1]; topical administration (groups 2 and 3)): largely ineffective | Single Pulse: Contraction Time ([2]; Group 2 (topical in tissucol)): 28.86 ms | Single Pulse: Half-Relaxation Time ([2]; Group 2 (topical in tissucol)): 64.69 ms | Single Pulse: Latence ([2]; Group 2 (topical in tissucol)): 9.93 ms | Single Pulse: Muscle Strength Normalized to Muscle Weight ([2]; Group 2 (topical in tissucol)): 0.30 g/µg | Single Pulse: Speed of Contraction ([2]; Group 2 (topical in tissucol)): 2419 g/ms | Single Pulse: Speed of Relaxation ([2]; Group 2 (topical in tissucol)): 514 g/ms | Single Pulse: Strength ([2]; Group 2 (topical in tissucol)): 20.03 g | Single Pulse: Contraction Time [2, 8]: 16.37 ms | Single Pulse: Half-Relaxation Time [2, 8]: 40.93 ms | Single Pulse: Latence [2, 8]: 7.65 ms | Single Pulse: Muscle Strength Normalized to Muscle Weight [2, 8]: 0.25 g/µg | Single Pulse: Speed of Contraction [2, 8]: 2939 g/ms | Single Pulse: Speed of Relaxation [2, 8]: 593 g/ms | Single Pulse: Strength [2, 8]: 14.96 g | Single Pulse: Contraction Time [2, 9]: 27.68 ms | Single Pulse: Half-Relaxation Time [2, 9]: 60.72 ms | Single Pulse: Latence [2, 9]: 9.48 ms | Single Pulse: Speed of Contraction [2, 9]: 2420 g/ms | Single Pulse: Speed of Relaxation [2, 9]: 635 g/ms | Single Pulse: Strength [2, 9]: 26.45 g | improvement of muscle strength over control group 1 (column 1, Table 4) ([2]; Group 4 (s.c.), p=0.05): 28% | improvement of speed of muscle contraction compared to group 1 (column 3, Table 4) ([2]; group 4 (s.c.), p=0.01): 300% | speed of relaxation compared to group 1 (column 4, Table 4) ([2]; printed as group 5): dramatically improved | light microscopic evaluation of semi-thin sections, control vs experimental groups ([3]; 0.5 μm sections after severance and end-to-end suture): did not disclose definite differences | growth of the myelin sheath in treated animals vs controls ([3]; 1 cm distal of the transection, period from the 32nd to the 96th day): almost twice as fast | Mean values of axon diameter [3, 10]: 1.545 μm | Mean values of myelin sheath thickness [3, 10]: 0.310 μm | Mean values of axon diameter ([3]; 1 cm distal to the transection, 96 days p.op., 1 μg/kg per day s.c.): 2.078 μm | Mean values of axon diameter [3, 11]: 1.888 μm | Mean values of myelin sheath thickness [3, 11]: 0.398 μm | Mean values of axon diameter [3, 12]: 2.335 μm | Mean values of myelin sheath thickness [3, 12]: 0.551 μm | Number of myelinated axons/0.004 sq. mm [3, 12]: 62 /0.004 sq. mm | statistically significant effect on the axon diameter ([3]; on the 32nd or on the 96th day p.op.): could not be demonstrated | % Reduction of Recovery Time [4]: 28%
